Columns and labels:
[1] = molecular target: T1, Solute carrier organic anion transporter family member 1B3 (Homo sapiens, UniProt Q9NPD5); test: (§1) TP_TRANSPORTER: uptake in Xenopus laevis oocytes; assay type: functional, cell-based, Oocyte; conditions: for Activity: oocyte; for Km: Xenopus laevis oocytes expressing SLCO1B3 (OATP1B3)
T1 sequence (Q9NPD5 whole entry): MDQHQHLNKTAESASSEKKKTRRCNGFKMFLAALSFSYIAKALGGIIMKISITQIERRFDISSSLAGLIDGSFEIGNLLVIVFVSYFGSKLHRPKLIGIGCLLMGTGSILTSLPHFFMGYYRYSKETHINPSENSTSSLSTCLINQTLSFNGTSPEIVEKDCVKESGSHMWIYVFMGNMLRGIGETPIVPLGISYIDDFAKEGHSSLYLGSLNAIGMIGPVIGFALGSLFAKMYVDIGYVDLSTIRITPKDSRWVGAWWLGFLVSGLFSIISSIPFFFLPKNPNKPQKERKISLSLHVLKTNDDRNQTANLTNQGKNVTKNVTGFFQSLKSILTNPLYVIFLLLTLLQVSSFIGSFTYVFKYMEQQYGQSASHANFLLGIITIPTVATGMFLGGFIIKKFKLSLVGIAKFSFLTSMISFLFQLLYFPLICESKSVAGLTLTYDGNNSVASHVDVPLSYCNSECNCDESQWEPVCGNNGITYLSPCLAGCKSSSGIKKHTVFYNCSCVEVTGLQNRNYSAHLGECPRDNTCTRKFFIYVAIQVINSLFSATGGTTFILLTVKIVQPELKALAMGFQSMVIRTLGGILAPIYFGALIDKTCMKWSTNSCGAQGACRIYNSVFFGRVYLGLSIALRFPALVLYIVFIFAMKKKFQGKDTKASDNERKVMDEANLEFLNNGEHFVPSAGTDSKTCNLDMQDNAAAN

[2] = molecular target: T2, Solute carrier organic anion transporter family member 1B1 (Homo sapiens, UniProt Q9Y6L6); test: as §1; assay type: functional, cell-based; conditions: oocyte
T2 sequence (Q9Y6L6 whole entry): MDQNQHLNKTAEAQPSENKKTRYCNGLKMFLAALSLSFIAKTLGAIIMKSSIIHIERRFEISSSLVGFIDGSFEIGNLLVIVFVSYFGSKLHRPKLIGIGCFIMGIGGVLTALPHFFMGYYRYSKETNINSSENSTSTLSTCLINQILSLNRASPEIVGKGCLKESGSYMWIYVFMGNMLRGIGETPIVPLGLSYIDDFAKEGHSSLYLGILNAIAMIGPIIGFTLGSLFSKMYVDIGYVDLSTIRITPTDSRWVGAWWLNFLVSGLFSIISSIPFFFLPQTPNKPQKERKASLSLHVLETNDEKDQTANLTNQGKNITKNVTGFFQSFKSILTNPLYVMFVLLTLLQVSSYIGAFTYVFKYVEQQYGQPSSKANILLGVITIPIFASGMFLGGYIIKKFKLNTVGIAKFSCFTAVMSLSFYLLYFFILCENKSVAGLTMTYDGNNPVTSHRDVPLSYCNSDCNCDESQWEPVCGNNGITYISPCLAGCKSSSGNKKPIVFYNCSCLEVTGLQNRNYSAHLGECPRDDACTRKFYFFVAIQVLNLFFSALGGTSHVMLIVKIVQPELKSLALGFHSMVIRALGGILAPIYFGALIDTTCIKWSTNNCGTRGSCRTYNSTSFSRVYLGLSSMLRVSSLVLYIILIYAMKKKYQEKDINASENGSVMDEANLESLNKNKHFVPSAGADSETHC

[3] = molecular target: T1, Solute carrier organic anion transporter family member 1B3; test: TP_TRANSPORTER: inhibition of MTX uptake (MTX: 1 uM, BSP: 100 uM) in Xenopus laevis oocytes; assay type: functional, cell-based; conditions: oocyte

Row | SMILES | Activity [1] | Km [1] | further results
1 | CC1(C)SSC(C)(C)[C@@H](NC(=O)[C@@H](N)Cc2ccc(O)cc2)C(=O)NCC(=O)N[C@@H](Cc2ccccc2)C(=O)N[C@H]1C(=O)O | is not a substrate [-] | – | –
2 | N[C@@H](Cc1cc(I)c(Oc2ccc(O)c(I)c2)c(I)c1)C(=O)O [LIOTHYRONINE] | – | 6.4 µM | –
3 | CN(Cc1cnc2nc(N)nc(N)c2n1)c1ccc(C(=O)N[C@@H](CCC(=O)O)C(=O)O)cc1 [METHOTREXATE] | – | 24.7 µM | Activity [2]: substrate [+]
4 | C[C@]12CC[C@H](OS(=O)(=O)O)CC1=CC[C@@H]1[C@@H]2CC[C@]2(C)C(=O)CC[C@@H]12 [PRASTERONE SULFURIC ACID] | substrate [+] | – | –
5 | O=C1OC(c2ccc(O)c(S(=O)(=O)[O-])c2)(c2ccc(O)c(S(=O)(=O)[O-])c2)c2c(Br)c(Br)c(Br)c(Br)c21.[Na+].[Na+] [SULFOBROMOPHTHALEIN SODIUM] | – | – | Activity [3]: inhibitor [+]

Reference: ChEMBL document CHEMBL2074457, “LST-2, a human liver-specific organic anion transporter, determines methotrexate sensitivity in gastrointestinal cancers” (Gastroenterology, 2001)
